The supplement of paper PMC10307832

Legend:
Experiment in all cases: relative viability (nuclei count vs DMSO), 5 days (fraction); higher = more cells survive
NVP-TAE684 + OSI-027 = compound: COc1cc(N2CCC(N3CCN(C)CC3)CC2)ccc1Nc1ncc(Cl)c(Nc2ccccc2S(=O)(=O)C(C)C)n1 [NVP-TAE684] + COc1cccc2cc(-c3nc([C@H]4CC[C@H](C(=O)O)CC4)n4ncnc(N)c34)[nH]c12 [OSI-027] (partner 0.5 µM)
Summary of the method: (§1)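 Cells from lung cancer lines were seeded into 1536-well plates and, one day later, dosed by pin tool. Treatments were either a single drug or a fixed dose of an anchor drug with five library-drug doses (not always all listed) in √10 steps. After 5 days, nuclei were stained in a one-step fixation (final 0.05% Triton X-100, 1% formaldehyde, 1 ug/ml Hoechst) and counted on 4× images, and relative viability is the treated-to-vehicle nuclei ratio, as the median of duplicate plates.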

NVP-TAE684 + AZD7762 = compound: COc1cc(N2CCC(N3CCN(C)CC3)CC2)ccc1Nc1ncc(Cl)c(Nc2ccccc2S(=O)(=O)C(C)C)n1 [NVP-TAE684] + NC(=O)Nc1cc(-c2cccc(F)c2)sc1C(=O)N[C@H]1CCCNC1 [AZD7762] (partner 0.2 µM)
Summary of the method: as §1

CUDC-101 + Vorinostat = compound: C#Cc1cccc(Nc2ncnc3cc(OC)c(OCCCCCCC(=O)NO)cc23)c1 [CUDC-101] + O=C(CCCCCCC(=O)Nc1ccccc1)NO [Vorinostat] (partner 1 µM)
Summary of the method: as §1

[1] = compound: C1=CC=C2C(=C1)N=C(S2)C(C#N)C3=NC(=NC=C3)NCCC4=CN=CC=C4 + Cc1nc(NC(=O)N2CCC[C@H]2C(N)=O)sc1-c1ccnc(C(C)(C)C(F)(F)F)c1 [Alpelisib] (partner 2 µM)
Summary of the method: as §1

NVP-TAE684 + Linsitinib = compound: COc1cc(N2CCC(N3CCN(C)CC3)CC2)ccc1Nc1ncc(Cl)c(Nc2ccccc2S(=O)(=O)C(C)C)n1 [NVP-TAE684] + C[C@]1(O)C[C@@H](c2nc(-c3ccc4ccc(-c5ccccc5)nc4c3)c3c(N)nccn32)C1 [Linsitinib] (partner 1 µM)
Summary of the method: as §1

Cell Line | relative viability (NVP-TAE684 + OSI-027; first compound 0.2 µM) | relative viability (NVP-TAE684 + OSI-027; first compound 0.6325 µM) | relative viability (NVP-TAE684 + OSI-027; first compound 2 µM) | relative viability (NVP-TAE684 + AZD7762; first compound 0.2 µM) | relative viability (NVP-TAE684 + AZD7762; first compound 0.6325 µM) | relative viability (NVP-TAE684 + AZD7762; first compound 2 µM) | relative viability (CUDC-101 + Vorinostat; first compound 0.01 µM) | relative viability (CUDC-101 + Vorinostat; first compound 0.03162 µM) | relative viability (CUDC-101 + Vorinostat; first compound 0.1 µM) | relative viability (CUDC-101 + Vorinostat; first compound 0.3162 µM) | relative viability (CUDC-101 + Vorinostat; first compound 1 µM) | relative viability ([1]; first compound 0.005 µM) | relative viability ([1]; first compound 0.01581 µM) | relative viability ([1]; first compound 0.05 µM) | relative viability ([1]; first compound 0.1581 µM) | relative viability ([1]; first compound 0.5 µM) | relative viability (NVP-TAE684 + Linsitinib; first compound 0.2 µM) | relative viability (NVP-TAE684 + Linsitinib; first compound 0.6325 µM) | relative viability (NVP-TAE684 + Linsitinib; first compound 2 µM)
LC-2-ad | 0.804 | 0.673 | 0.317 | 0.808 | 0.818 | 0.427 | 0.721 | 0.716 | 0.703 | 0.658 | 0.538 | 0.768 | 0.867 | 0.822 | 0.966 | 0.734 | 0.842 | 0.771 | 0.218
NCI-H1299 |  |  |  |  |  |  |  |  |  |  |  | 1.06 | 1.14 | 1.04 | 1.13 | 1.1 | 0.915 | 1.02 | 0.909
NCI-H2009 | 0.603 | 0.449 | 0.302 |  |  |  | 0.766 | 0.639 | 0.764 | 0.705 | 0.506 | 1.13 | 1.22 | 1.18 | 1.16 | 1.12 | 1.08 | 1.21 | 0.986
NCI-H1395 | 0.712 | 0.482 | 0.567 | 0.417 | 0.367 | 0.397 | 0.81 | 0.753 | 0.797 | 0.661 | 0.489 | 1.14 |  | 0.939 | 1.04 | 1.21 | 1.3 | 0.766 | 0.862
NCI-H1650 | 0.374 | 0.437 | 0.217 |  |  |  | 0.532 | 0.352 | 0.517 | 0.615 | 0.41 |  |  |  |  |  |  |  | 
NCI-H2085 | 0.777 | 0.739 | 0.57 | 0.991 | 0.953 | 0.797 | 0.772 | 0.771 | 0.814 | 0.801 | 0.628 | 0.87 | 0.875 | 0.912 | 0.959 | 0.867 | 0.928 | 0.82 | 0.7
NCI-H1792 | 0.779 | 0.731 | 0.818 | 0.678 | 0.733 | 0.394 |  |  |  |  |  |  | 0.817 | 0.696 | 0.891 | 0.517 | 0.451 | 0.509 | 0.504
IA-LM |  |  |  |  |  |  | 0.997 | 0.915 | 0.93 | 0.797 | 0.586 |  | 0.628 | 0.608 | 0.916 | 0.734 | 0.386 | 0.503 | 0.627
NCI-H520 | 0.281 | 0.287 | 0.199 |  |  |  | 0.769 | 0.686 | 0.488 | 0.397 | 0.32 | 0.508 | 1.09 | 0.793 | 1.13 | 0.665 | 0.911 | 0.986 | 0.45
NCI-H2342 |  | 0.585 | 0.34 | 0.463 | 0.437 | 0.349 | 0.737 | 0.663 | 0.773 | 0.685 | 0.703 |  |  |  |  |  |  |  | 
NCI-H2170 | 0.703 | 0.579 | 0.63 | 1.04 | 0.814 | 0.785 | 0.809 | 0.821 | 0.77 | 0.859 | 0.549 |  | 0.801 | 0.845 | 0.838 | 0.723 |  |  | 
